Experimental findings from patent US20030082135A1, “Pathway of RANTES-mediated chemokine synthesis in astrocytes and methods of use therefor” (priority 2001, published 2003) are described below.

Bounds are passed on as bounds.

One assay deals with astrocytes. The assay can be described thus: ELISA of KC, TNF-α and MCP-1 protein in astrocyte culture supernatants. Format: cell-based, mouse. The method, then: ELISA. For production of supernatants, 2×10^4 astrocytes were cultured in 96 well plates with medium or 100 ng/ml RANTES. Supernatants were collected after the indicated times. ELISA assays for KC and MCP-1 were performed as in Luo, Y., et al. 1999. J Immunol 163:3985, and for TNF-α as in Abromson-Leeman, et al. 2001. Eur J Immunol 31:527. Protein levels were determined using recombinant KC, MCP-1, or TNF-α (R & D Systems, Minneapolis, Minn.) as standards.
(ELISA stands for enzyme-linked immunosorbent assay.)

Assay [1] relates to MEK, ERK1/2, p90RSK, p38, SAPK/JNK phosphorylation in astrocytes. In words: Western blotting of phosphorylated MAP kinase pathway proteins in astrocyte lysates. Format: cell-based, mouse. The method, then: SDS-PAGE and Western blotting. Astrocytes were treated for the indicated time with media or 100 ng/ml RANTES, eotaxin, or other materials as indicated. Cells (3×10^5 in Examples 1-3, or 2×10^4 in later Examples) were resuspended in 100 μl buffer (50 mM HEPES, pH 7.5, 150 mM NaCl, 2 mM EDTA, 2 mM EGTA, 1% Triton X-100, 50 mM Sodium fluoride, 5 mM Sodium pyrophosphate, 50 mM Sodium β-glycerophosphate, 1 mM Sodium Ortho-vanadate, 1 mM DTT, 1 mM PMSF, 10 μg/ml Leupeptin, and 10 μg/ml Aprotinin). Protein concentration of the whole cell extract was determined by BCA protein assay kit (Pierce, Rockford, Ill.). Samples (10 μg) were loaded and separated on a 10% SDS-polyacrylamide gel. After transfer to Hybond ECL nitrocellulose membrane (Amersham Pharmacia Biotech Inc, Piscataway, N.J.) or Zeta-probe blotting membranes (Bio-Rad, Richmond Calif.) blots were blocked overnight with 5% BSA at 4° C., and probed with the antibody indicated. Antibody against unphosphorylated or phosphorylated erk (Cell Signaling, Beverly, Mass.) was used at 1 μg/ml. Appropriate anti-immunoglobulin reagents were used to develop the blots by enhanced chemiluminescence (Amersham Pharmacia Biotech Inc, Piscataway, N.J.).
Little is known about the signaling mechanisms involved in astrocyte respones to chemokines. To examine components of the RANTES signal transduction pathway, phosphorylation of the MAP kinase kinase (MEK) and mitogen activated protein (MAP) kinases was examined. To minimize basal kinase activity, astrocytes were starved of serum for at least 3 h before treatment with chemokine. Whole cell lysates were separated by SDS-PAGE and examined by Western blot. Antibodies that specifically react with phosphorylated MEK or phosphorylated extracellular signal-related kinase (ERK) were used to detect the active kinases.
(In general: Immunoblotting shows a protein as a band on a membrane.)

Assay [2] deals with CXCR4, CX3CR1, CCR1, CCR5 transcripts in astrocytes. In words: RPA for chemokine receptor transcripts in astrocytes. Format: cell-based, mouse. Conditions: average, pooled results of 3-4 experiments. As for the experimental part: RNA isolation and RNase protection assay (RPA). RNA was prepared as in Luo, Y., et al. 1999. J Immunol 163:3985. RNase protection assays (RPA) for chemokine message were conducted with multi-probe templates according to the manufacture's protocol (RiboQuant assay kit, BD-PharMingen, San Diego, Calif.). Gels were scanned and radioactive bands quantitated using a phosphoimager (Molecular Dynamics, Sunnyvale, Calif.). Levels of uniformly expressed housekeeping genes large ribosomal subunit protein 32-3A (L32) or glyceraldehyde-3-phosphate dehydrogenase (GAPDH), were used for normalization. The value of each chemokine receptor band divided by the value of the indicated housekeeping gene band in the same sample yielded the relative intensity. Normalized receptor expression represents the ratio of the relative intensity following treatment with chemokine versus the relative intensity of medium alone.
Treatment with the RANTES-related chemokines RANTES or eotaxin, or with TNF-α also found to down-regulate expression of CX3CR1 transcripts. In addition, CXCR4 mRNA levels were decreased, while the levels of CCR1 transcripts were elevated. In contrast, little or no regulation of CCR5 was noted. The pooled results of 3-4 experiments indicate eotaxin caused an average 60% decrease in CXCR4 (P less than 0.01) and a 70% decrease in CX3CR1 mRNA (P less than 0.02) (FIG. 8.B). The effects of RANTES stimulation were similar with an average 70 and 90% reduction in CXCR4 and CX3CR1 transcripts, respectively (P less than 0.01).

The next assay concerns mouse thymocytes. The assay can be described thus: RPA for chemokine/cytokine transcripts in thymocytes. It is filed as cell-based. Particulars: 100 ng/ml, 6 h. As for the experimental part:
To evaluate the cellular specificity of chemokine induction by RANTES-related chemokines, mouse thymocytes were treated with 2.5 μg/ml ConA, 100 ng/ml RANTES, or TCA4. After 6 h the cells were harvested for RNA extraction. […] Thus, the ability of RANTES-related chemokines to up-regulate chemokine/cytokine synthesis is not a generalized phenomenon in all cell types, but is specific for CNS cells such as astrocytes.

Another assay relates to GFAP in astrocytes. In words: Immunofluorescence of GFAP in astrocytes. Format: cell-based, mouse. Conditions: 100 ng/ml RANTES for 1-5 days. As for the experimental part:
Astrocytes associated with Alzheimer's Disease, MS and EAE lesions frequently display increased levels of the intracellular marker GFAP, an indicator of astrogliosis (Xu et al., 1999. Glia 25:390-403). To determine if chemokines could modulate GFAP expression astrocytes were treated with 100 ng/ml RANTES for 1-5 days and then examined for the intracellular marker GFAP by conventional immunofluorescence. Evidence for modulation of GFAP was not observed.

As for RANTES, in the assay on astrocytes (100 ng/ml RANTES), the “time at which KC protein reached a plateau” value was 1 days, the “time at which KC protein synthesis was detectable” value was no more than 8 h and the “time at which KC protein was detected” value was 12 h. Besides, in the assay with astrocytes (100 ng/ml RANTES, after 16 h), the “KC protein concentration in supernatant” value lay within 20 to 30 ng/mL and the “TNF-α protein level in supernatant” value is on record as “less than 120 pg/ml”. For the same substance, the “TNF-α protein in culture supernatants” value in the assay with astrocytes (6 h after RANTES stimulation) was “not detectable”. Also, in the assay with astrocytes (12 h after RANTES stimulation), the “TNF-α protein in culture supernatants” value is “greater than 100 pg/ml”. For the same substance, in the assay on astrocytes (RANTES stimulation), the “time of peak TNF-α protein levels” value is reported as 24 h. In assay [1] (100 ng/ml RANTES), the “duration of phosphorylation of MEK, ERK1 and ERK2” value is “over 2 h”; the “duration of phosphorylation of RSK” value was “over 2 h”; the “phosphorylation state of Raf-1 Ser 259” value was “dephosphorylation”; the “time of appearance of phosphorylation of MEK, ERK1 and ERK2” value is no more than 5 min. Also, in assay [1] (100 ng/ml RANTES), the “time of peak phosphorylation of MEK, ERK1 and ERK2” value lay in the range of 20 to 60 min; the “time of peak phosphorylation of RSK” value is reported as 60 min. Besides, in assay [1] (100 ng/ml RANTES, Ser381, Thr360/Ser364, Thr574), the “time of appearance of phosphorylation of RSK” value was no more than 5 min. Besides, the “phosphorylation of p38 or SAPK/JNK” value in assay [1] (100 ng/ml, 20 min, 5 to 120 min) is “failed to phosphorylate”. In assay [2], the “decrease in CX3CR1 mRNA” value was determined as 90% and the “decrease in CXCR4 mRNA” value was determined as 70%. Also, the “RANTES and TNF-α RNA levels in thymocytes” value in the assay on mouse thymocytes is reported as “not to ber further enhanced”. In addition, the “modulation of GFAP” value in the assay on GFAP in astrocytes was “not observed”.
